Activity calls are given as the source filed them. How the calls were made is not given here.
System: CCRIS mutagenicity, Ames/micronucleus/aberration tests
Assay: CCRIS mutagenicity studies

With `C=CC#N` the mutagenic call (Test System: AMES SALMONELLA TYPHIMURIUM, Strain/Indicator: TA1535, Metabolic Activation: HAMSTER LIVER S-9, AROCLOR 1254 (5, 10, OR 30%), Method: PREINCUBATION) was “active; positive”, the mutagenic call (Test System: AMES SALMONELLA TYPHIMURIUM, Strain/Indicator: TA1535, Metabolic Activation: HAMSTER, LIVER, S-9, AROCLOR 1254 (2.5-20%), Method: STANDARD PLATE) was “active; positive” and the mutagenic call (Test System: AMES SALMONELLA TYPHIMURIUM, Strain/Indicator: TA1535, Metabolic Activation: HAMSTER, LIVER, S-9, AROCLOR 1254 (10%), Method: STANDARD PLATE) was “active; positive”. The mutagenic call (Test System: AMES SALMONELLA TYPHIMURIUM, Strain/Indicator: TA1535, Metabolic Activation: HAMSTER, LIVER, S-9, AROCLOR 1254 (10, 20%), Method: PREINCUBATION) was “active; positive”, the mutagenic call (Test System: AMES SALMONELLA TYPHIMURIUM, Strain/Indicator: TA1535, Metabolic Activation: HAMSTER, LIVER, S-9, AROCLOR 1254 (20%), Method: STANDARD PLATE) was “active; positive” and the mutagenic call (Test System: AMES SALMONELLA TYPHIMURIUM, Strain/Indicator: TA1535, Metabolic Activation: MOUSE, LIVER, S-9, AROCLOR 1254, Method: LIQUID, VAPOR, SPOT) was “active; positive”. The mutagenic call (Test System: AMES SALMONELLA TYPHIMURIUM, Strain/Indicator: TA1535, Metabolic Activation: NONE, Method: PREINCUBATION) was “inactive; negative”, the mutagenic call (Test System: AMES SALMONELLA TYPHIMURIUM, Strain/Indicator: TA1535, Metabolic Activation: NONE, Method: STANDARD PLATE) was “inactive; negative” and the mutagenic call (Test System: AMES SALMONELLA TYPHIMURIUM, Strain/Indicator: TA1535, Metabolic Activation: RAT LIVER S-9, AROCLOR 1254 (5%), Method: PREINCUBATION) was “active; positive”. The mutagenic call (Test System: AMES SALMONELLA TYPHIMURIUM, Strain/Indicator: TA1535, Metabolic Activation: RAT LIVER S-9, AROCLOR 1254 (5,10, OR 30%), Method: PREINCUBATION) was “active; positive”, the mutagenic call (Test System: AMES SALMONELLA TYPHIMURIUM, Strain/Indicator: TA1535, Metabolic Activation: RAT LIVER S-9, AROCLOR 1254 (10% OR 30%), Method: PREINCUBATION) was “active; positive” and the mutagenic call (Test System: AMES SALMONELLA TYPHIMURIUM, Strain/Indicator: TA1535, Metabolic Activation: RAT, LIVER, S-9, 3-METHYLCHOLANTHRENE OR PCB OR PHENOBARBITAL, Method: DESICCATOR) was “active; positive”. The mutagenic call (Test System: AMES SALMONELLA TYPHIMURIUM, Strain/Indicator: TA1535, Metabolic Activation: RAT, LIVER, S-9, AROCLOR 1254, Method: STANDARD PLATE) was “inactive; negative”, the mutagenic call (Test System: AMES SALMONELLA TYPHIMURIUM, Strain/Indicator: TA1537, Metabolic Activation: NONE, Method: STANDARD PLATE) was “inactive; negative” and the mutagenic call (Test System: AMES SALMONELLA TYPHIMURIUM, Strain/Indicator: TA1537, Metabolic Activation: RAT, LIVER, S-9, AROCLOR 1254, Method: STANDARD PLATE) was “inactive; negative”. The mutagenic call (Test System: AMES SALMONELLA TYPHIMURIUM, Strain/Indicator: TA1538, Metabolic Activation: MOUSE, LIVER, S-9, AROCLOR 1254, Method: LIQUID, VAPOR, SPOT) was “active; positive”, the mutagenic call (Test System: AMES SALMONELLA TYPHIMURIUM, Strain/Indicator: TA1538, Metabolic Activation: NONE, Method: STANDARD PLATE) was “inactive; negative” and the mutagenic call (Test System: AMES SALMONELLA TYPHIMURIUM, Strain/Indicator: TA1538, Metabolic Activation: RAT, LIVER, S-9, AROCLOR 1254, Method: STANDARD PLATE) was “inactive; negative”. The mutagenic call (Test System: AMES SALMONELLA TYPHIMURIUM, Strain/Indicator: TA1978, Metabolic Activation: MOUSE, LIVER, S-9, AROCLOR 1254, Method: VAPOR) was “active; positive”, the mutagenic call (Test System: Ames Salmonella typhimurium, Strain/Indicator: YG7108pin3ERb5, Metabolic Activation: None, Method: Standard plate) was “inactive; negative” and the mutagenic call (Test System: CHINESE HAMSTER V-79, Strain/Indicator: V-79 (HGPRT)/8-AZAGUANINE, Metabolic Activation: NONE, Method: REPLATING) was “inactive; negative”. For the same compound, the mutagenic call (Test System: CHINESE HAMSTER V-79, Strain/Indicator: V-79 (HGPRT)/8-AZAGUANINE, Metabolic Activation: RAT, LIVER, S-9, AROCLOR 1254, Method: REPLATING) was “inactive; negative”, the mutagenic call (Test System: E. COLI, Strain/Indicator: WP2, Metabolic Activation: NONE, Method: FLUCTUATION) was “active; positive” and the mutagenic call (Test System: E. COLI, Strain/Indicator: WP2, Metabolic Activation: NONE, Method: STANDARD PLATE) was “active; positive”. For the same compound, the mutagenic call (Test System: E. COLI, Strain/Indicator: WP2 UVRA, Metabolic Activation: NONE, Method: STANDARD PLATE) was “active; positive”, the mutagenic call (Test System: MOUSE LYMPHOMA, Strain/Indicator: L5178Y (TK+/+)/OUABAIN, Metabolic Activation: NONE, Method: SUSPENSION/PLATE) was “inactive; negative” and the mutagenic call (Test System: MOUSE LYMPHOMA, Strain/Indicator: L5178Y (TK+/+)/OUABAIN, Metabolic Activation: RAT LIVER S-9, AROCLOR 1254, Method: SUSPENSION/PLATE) was “inactive; negative”. The mutagenic call (Test System: MOUSE LYMPHOMA, Strain/Indicator: L5178Y (TK+/TK-), Metabolic Activation: RAT, LIVER, S-9, Method: SUSPENSION/PLATE) was “active; positive”, the mutagenic call (Test System: MOUSE LYMPHOMA, Strain/Indicator: L5178Y(TK+/TK-)/TRIFLUOROTHYMIDINE, Metabolic Activation: NONE, Method: SUSPENSION PLATE) was “active; positive” and the mutagenic call (Test System: UDS HUMAN MAMMARY EPITHELIAL CELLS, Strain/Indicator: THY INCORP, Metabolic Activation: NONE, Method: AUTORADIOGRAPHY) was “inactive; negative”. The mutagenic call (Test System: UDS PRIMARY RAT HEPATOCYTES, Strain/Indicator: THY INCORP, Metabolic Activation: NONE, Method: AUTORADIOGRAPHY) was “inactive; negative”, the mutagenic call (Test System: UDS PRIMARY RAT HEPATOCYTES, Strain/Indicator: THY INCORP, Metabolic Activation: NONE, Method: IN VIVO-IN VITRO) was “inactive; negative” and the mutagenic call (Test System: UDS PRIMARY RAT SPERMATOCYTES, Strain/Indicator: THY INCORP, Metabolic Activation: NONE, Method: IN VIVO-IN VITRO) was “inactive; negative”. The mutagenic call (Test System: UDS RAT HEPATOCYTES, Strain/Indicator: THY INCORP, Metabolic Activation: NONE, Method: LIQUID SCINTILLATION COUNTING) was “active; positive”.

From PubChem BioAssay AID1259407 (Chemical Carcinogenesis Research Information System (CCRIS), 2018)
